pKi: −log10 of the molar value.
Molecular target: ATP-dependent translocase ABCB1 (Homo sapiens, UniProt P08183)
Assay: TP_TRANSPORTER: inhibition of Hydroxydoxorubicin efflux in K562/Adr cells
Format: functional, cell-based

ATP-dependent translocase ABCB1, sequence (P08183 whole entry): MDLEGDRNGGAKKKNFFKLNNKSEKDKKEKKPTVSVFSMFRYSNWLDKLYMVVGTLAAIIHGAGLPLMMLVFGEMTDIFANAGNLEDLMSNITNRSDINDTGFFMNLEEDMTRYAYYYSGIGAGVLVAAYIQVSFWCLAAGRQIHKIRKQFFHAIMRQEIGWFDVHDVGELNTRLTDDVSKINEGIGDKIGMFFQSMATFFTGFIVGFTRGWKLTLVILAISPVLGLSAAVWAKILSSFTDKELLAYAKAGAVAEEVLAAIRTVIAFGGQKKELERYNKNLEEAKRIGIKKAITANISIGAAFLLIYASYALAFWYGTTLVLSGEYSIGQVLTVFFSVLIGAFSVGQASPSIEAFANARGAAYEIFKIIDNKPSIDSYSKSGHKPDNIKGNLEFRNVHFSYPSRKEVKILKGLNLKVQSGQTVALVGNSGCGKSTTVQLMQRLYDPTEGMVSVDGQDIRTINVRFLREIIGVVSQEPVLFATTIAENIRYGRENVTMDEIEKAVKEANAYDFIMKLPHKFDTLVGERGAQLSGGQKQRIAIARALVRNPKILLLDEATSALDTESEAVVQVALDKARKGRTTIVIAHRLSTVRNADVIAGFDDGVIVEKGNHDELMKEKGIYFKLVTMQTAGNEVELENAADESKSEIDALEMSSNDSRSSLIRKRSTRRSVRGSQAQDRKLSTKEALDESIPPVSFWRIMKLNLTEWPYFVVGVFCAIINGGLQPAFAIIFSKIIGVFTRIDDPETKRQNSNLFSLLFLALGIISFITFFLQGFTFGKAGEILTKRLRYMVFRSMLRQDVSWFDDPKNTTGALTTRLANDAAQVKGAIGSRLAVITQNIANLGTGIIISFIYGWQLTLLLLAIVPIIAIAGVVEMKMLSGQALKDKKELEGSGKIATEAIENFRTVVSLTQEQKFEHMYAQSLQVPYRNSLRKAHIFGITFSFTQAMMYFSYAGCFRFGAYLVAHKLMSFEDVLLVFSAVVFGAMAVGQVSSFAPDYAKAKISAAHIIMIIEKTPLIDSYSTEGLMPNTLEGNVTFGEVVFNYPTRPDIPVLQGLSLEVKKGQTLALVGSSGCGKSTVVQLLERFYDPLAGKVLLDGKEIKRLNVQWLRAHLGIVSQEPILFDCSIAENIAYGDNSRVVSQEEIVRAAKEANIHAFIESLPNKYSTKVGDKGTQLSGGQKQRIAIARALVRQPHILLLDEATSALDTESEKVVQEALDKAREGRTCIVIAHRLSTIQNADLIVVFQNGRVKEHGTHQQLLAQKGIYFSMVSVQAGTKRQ

pKi: 6.68
Structure (SMILES): Cc1nc(C)c(P2(=O)O[C@H](C)C[C@@H](C)O2)c(-c2cccc([N+](=O)[O-])c2)c1C(=O)OCCN1CCN(C(c2ccccc2)c2ccccc2)CC1 (stereo partly specified)

Source: ChEMBL document CHEMBL2074087, “Inhibition of the P-glycoprotein- and multidrug resistance protein-mediated efflux of anthracyclines and calceinacetoxymethyl ester by PAK-104P” (Eur J Pharmacol, 2000)
